Experiments:
[1] = Tasting in mango juice drink, 1% clear mango juice; conditions: 8% sucrose, 0.1% citric acid, mango flavour 0.05%
Protocol: Comparison in a Mango Juice Drink
Base is 8% sucrose, 0.1% citric acid, 1% clear mango juice, and a proprietary mango flavour at 0.05%.
(§1) Samples were evaluated by expert tasters. Tasters were asked to describe the samples focusing on authentic taste, mouthfeel, fullness, salty-ness, salivation, umami, sweetness, juiciness, richness, long lastingness and fattiness.
Base is water, 8% sucrose, 0.1% citric acid, 1% clear mango juice, proprietary mango flavour @ 0.05%
(§2) Samples were evaluated by expert tasters. Tasters were asked to describe the samples focusing on authentic taste, mouthfeel, fullness, salivation, salty-ness, umami, sweetness, juiciness, richness, long lastingness and fattiness.
Base is water, 8% sucrose, 0.1% citric acid, 1% clear mango juice, proprietary mango flavour @0.05%
(§3) Samples were evaluated by expert tasters. Tasters were asked to describe the samples focusing on authentic taste, mouthfeel, fullness, salty-ness, salivation, umami, sweetness, juiciness, richness, long lastingness and fattiness
Base is 8% sucrose, 0.1% citric acid, 1% clear mango juice, proprietary mango flavour @ 0.05%
(§4) Samples were evaluated by expert tasters. Tasters were asked to describe the samples focusing on authentic taste, mouth feel, fullness, salivation, salty-ness, umami, sweetness, juiciness, richness, long lastingness and fattiness
Base is water, 8% sucrose, 0.1% citric acid, 1% clear mango juice, proprietary mango flavour @ 0.05%.
Test in a Mango Juice Drink

[2] = Tasting in Maggi beef bouillon; conditions: Maggi beef bouillon 1 tablet in 500 ml of hot water
Protocol: (§5) Samples were prepared and evaluated by expert tasters. Tasters were asked to describe the samples focusing on authentic taste, mouthfeel, fullness, salty-ness, salivation, umami, sweetness, juiciness, richness, long lastingness and fattiness.
Comparison in Beef Bouillon
Base is Maggi beef bouillon 1 tablet in 500 ml of hot water
as §1, §2, §3, §4

[3] = Test in peach flavoured drink; conditions: 1 ppm; water, 8% sugar, 0.1% citric acid, peach flavour 0.05%
Protocol: as §5
Test in Peach Flavoured Drink:
Base is water, 8% sugar, 0.1% citric acid, and proprietary peach flavour at 0.05%
as §1
Comparison in a Peach Drink
Base is water, 8% sugar, 0.1% citric acid, proprietary peach flavour at 0.05%
as §2

[4] = Tasting in strawberry drink; conditions: 7% sucrose, 0.1% citric acid, strawberry flavour 0.015%
Protocol: as §5
Comparison in a Strawberry Drink
Base is 7% sucrose, 0.1% citric acid, and a proprietary strawberry flavour @ 0.015%
as §1
Base is water, 7% sucrose, 0.1% citric acid, proprietary strawberry flavour @ 0.015%
as §2
Test in a Strawberry Drink
Base is 7% sucrose, 0.1% citric acid, proprietary strawberry flavour @ 0.015%

[5] = Tasting in vanilla milk 0.15% fat; conditions: 1 ppm, 4% sucrose, Vaniline 10 ppm + vanilla extract 0.03%
Protocol: as §5
Base: Milk 0.15% fat, sweetened with 4% sucrose by weight, flavoured with proprietary
Vaniline flavour @ 10 ppm+Vanilla ext. @ 0.03%
as §1
Comparison in a Vanilla Milk Drink
Vaniline @ 10 ppm+Vanilla extract @ 0.03%
Base: Milk 0.15% fat, sweetened with 4% sucrose by weight, flavoured with proprietary Vaniline @ 10 ppm+Vanilla extract @ 0.03%

[6] = Tasting in strawberry flavoured sugar sweetened yoghurt; conditions: 2 ppm, 1.5% fat yoghurt, 8% sucrose, strawberry flavour 0.015%
Protocol: Strawberry Flavoured Sugar Sweetened Yoghurt
In a 1.5% fat yoghurt base, sweetened with 8% sucrose by weight, flavoured with a proprietary strawberry flavour @ 0.015% several different N-acyl aminoacids were added.
as §5
Test in a Strawberry Yoghurt
Base: Yoghurt 1.5% fat yoghurt, 8% sucrose, proprietary strawberry flavour @ 0.015%
as §2

CCCCCCCC/C=C\CCCCCCCC(=O)N[C@@H](CC(C)C)C(=O)O [C18:1-leu, N-oleoyl-L-leucine]
tasting result ([1]; 2 ppm): very long lasting, ripe, fruity, juicy

CCCCCCCC(=O)NC(CCSC)C(=O)O (centres unmarked) [C8:0-met]
tasting result ([2]; 1 ppm): more salty, no additional fullness
tasting result ([1]; 1 ppm): green fresh, no additional body

CCCCCCCCCCCCCCCCCC(=O)NC(CC(=O)O)C(=O)O (centres unmarked) [C18:0-asp, N-stearoyl-Asp]
tasting result ([2]; 1 ppm): lot off fullness and body, less salty
tasting result ([1]; 1 ppm): fatty, fruity, long lasting

CCCCCCCC/C=C\CCCCCCCC(=O)NC(CC(=O)O)C(=O)O (centres unmarked) [C18:1-asp]
tasting result ([2]; 1 ppm): not special
tasting result ([1]; 1 ppm): juicy fruit like

CCCCCCCC/C=C\CCCCCCCC(=O)NCCC(=O)O [C18:1-beta ala]
tasting result ([2]; 2 ppm): more salty salivating umami
tasting result ([1]; 2 ppm): more juicy, longlasting

CCCCC/C=C\C/C=C\CCCCCCCC(=O)NCCC(=O)O [C18:2-beta ala]
tasting result ([2]; 2 ppm): salty, savoury, full
tasting result ([1]; 2 ppm): full long lasting nice juicy, almost a bit salty

CCCCCCCC/C=C\CCCCCCCC(=O)N[C@H](C(=O)O)C(C)C [C18:1-val, N-oleoyl-L-valine]
tasting result [3]: tropical, fatty, skin, juicy

CCCCCCCCCCCCCCCCCC(=O)NC(CCC(=O)O)C(=O)O (centres unmarked) [C18:0-glu, N-stearoyl-Glu]
tasting result ([4]; 0.5 ppm): fruity, juicy, long lasting
tasting result [5]: full, fatty, whipped cream like
tasting result ([1]; 1 ppm): fatty, full, sweet juicy

CCCCCCCCCCCCCCCC(=O)N[C@@H](CC(C)C)C(=O)O [C16:0-leu, N-palmitoyl-L-leucine]
tasting result ([1]; 2 ppm): very fruity, ripe mango taste, strawberry note

CCCCC/C=C\C/C=C\CCCCCCCC(=O)NC(CCSC)C(=O)O (centres unmarked) [C18:2-met, N-linoleoyl-Met]
tasting result ([2]; 1 ppm): salivating salty, umami
tasting result ([1]; 1 ppm): fresh nice juicy

CCCCCCCCCCCCCCCCCC(=O)NCCCC(=O)O [C18:0-gaba]
tasting result ([4]; 0.5 ppm): mild creamy, fruity, juicy and long lasting
tasting result [6]: juicy full, jammy

CCCCCCCCCCCCCCCCCC(=O)N[C@@H](CO)C(=O)O [C18:0-ser, N-stearoyl-Ser]
tasting result ([2]; 1 ppm): more salty, richer, more umami
tasting result ([1]; 1 ppm): nice sweet, pineapple, long lasting

CCCCCCCCCCCCCCCC(=O)N[C@H](C(=O)O)C(C)C [C16:0-val, N-palmitoyl-L-valine]
tasting result [3]: very juicy

CCCCCC/C=C\CCCCCCCC(=O)NC(CCC(=O)O)C(=O)O (centres unmarked) [C16:1-glu, N-palmitenoyl-Glu]
tasting result ([4]; 0.5 ppm): full, fatty, creamy
tasting result [5]: full, fatty, creamy, sweet vanilla
tasting result ([1]; 1 ppm): full, heavy, jammy, long lasting

CCCCCC/C=C\CCCCCCCC(=O)NCCCC(=O)O [C16:1-gaba]
tasting result ([4]; 2 ppm): juicy, fruity, fatty, long lasting, good mouthfeel
tasting result ([1]; 2 ppm): juicy, rich, full authentic

CCCCCCCCCCCCCCCC(=O)N1CCCC1C(=O)O (centres unmarked) [C16:0-pro, N-palmitoyl-Pro]
tasting result ([2]; 1 ppm): more salty, full, darker, more meat-like
tasting result ([1]; 1 ppm): overripe, orange like, long lasting after taste

CCCCCCCC/C=C\CCCCCCCC(=O)NC(CCC(N)=O)C(=O)O (centres unmarked) [C18:1-gln]
tasting result ([4]; 0.5 ppm): more juicy, creamy, fruity long lasting
tasting result [6]: Juicy, nice, fatty aftertaste

CCCCC/C=C\C/C=C\CCCCCCCC(=O)N[C@@H](C)C(=O)O [C18:2-ala, N-linoleoyl-L-alanine]
tasting result ([4]; 0.5 ppm): creamy, fruity, juicy, green, long lasting, strawberry
tasting result [3]: enhanced sulfur note, powdery, soft peach skin like, authentic peach, slight raspberry note
tasting result ([1]; 1 ppm): fatty, juicy, apple skin taste

CCCCCCCCCCCCCCCCCC(=O)NC(CCC(N)=O)C(=O)O (centres unmarked) [C18:0-gln, N-stearoyl-Gln]
tasting result [6]: Sweet full juicy, nice, slight enhanced sulphury

CCCCCCCCCCCCCCCC(=O)NCCC(=O)O [C16:0-beta ala]
tasting result ([2]; 2 ppm): more salty salivating umami
tasting result ([1]; 2 ppm): more juicy

— patent US11091429B2, “Organic compounds” (Givaudan SA, priority 2012, dated 2021)
